Legend:
Experiment in all cases: HDAC enzyme assay, in vitro biochemical
Settings in all cases: maximum concentration tested of 20 μM
HDAC5 = target: T1, HDAC5 (Homo sapiens, UniProt Q9UQL6)
T1 construct: purchased BPS Biosciences
Experimental: (§1) In vitro biochemical assays were performed as described previously. Specifically, compounds were dissolved and diluted in assay buffer (50 mM HEPES, pH 7.4, 100 mM KCl, 0.001% Tween-20, 0.05% BSA, and 20 μM Tris (2-carboxyethyl) phosphine) to 6-fold the final concentration. […] The amount of substrate (acetyl-lysine tripeptide) used for each enzyme was equal to the Michaelis constant (Km), as determined by a titration curve. Substrate was diluted in assay buffer to 6-fold of the final concentration with 0.3 μM sequencing grade trypsin (Sigma-Aldrich). The substrate/trypsin mix was added to the enzyme/compound mix and the plate was shaken for 5 seconds and then placed into a SpectraMax M5 microtiter (Molecular Devices) plate reader. The enzymatic reaction was monitored over 30 minutes for release of […] after deacetylation of the lysine side chain in the peptide substrate, and the linear rate of the reaction was calculated.
(§2) biochemical assay for HDAC4, HDAC5, HDAC6, HDAC7, HDAC8, HDAC9 inhibition by ACY-1035.
(§3) (1 picture or pasted object on this page, not shown here)

HDAC6 = target: T2, HDAC6 (Homo sapiens, UniProt Q9UBN7)
T2 construct: purchased BPS Biosciences
T2 sequence (Q9UBN7 1-1215): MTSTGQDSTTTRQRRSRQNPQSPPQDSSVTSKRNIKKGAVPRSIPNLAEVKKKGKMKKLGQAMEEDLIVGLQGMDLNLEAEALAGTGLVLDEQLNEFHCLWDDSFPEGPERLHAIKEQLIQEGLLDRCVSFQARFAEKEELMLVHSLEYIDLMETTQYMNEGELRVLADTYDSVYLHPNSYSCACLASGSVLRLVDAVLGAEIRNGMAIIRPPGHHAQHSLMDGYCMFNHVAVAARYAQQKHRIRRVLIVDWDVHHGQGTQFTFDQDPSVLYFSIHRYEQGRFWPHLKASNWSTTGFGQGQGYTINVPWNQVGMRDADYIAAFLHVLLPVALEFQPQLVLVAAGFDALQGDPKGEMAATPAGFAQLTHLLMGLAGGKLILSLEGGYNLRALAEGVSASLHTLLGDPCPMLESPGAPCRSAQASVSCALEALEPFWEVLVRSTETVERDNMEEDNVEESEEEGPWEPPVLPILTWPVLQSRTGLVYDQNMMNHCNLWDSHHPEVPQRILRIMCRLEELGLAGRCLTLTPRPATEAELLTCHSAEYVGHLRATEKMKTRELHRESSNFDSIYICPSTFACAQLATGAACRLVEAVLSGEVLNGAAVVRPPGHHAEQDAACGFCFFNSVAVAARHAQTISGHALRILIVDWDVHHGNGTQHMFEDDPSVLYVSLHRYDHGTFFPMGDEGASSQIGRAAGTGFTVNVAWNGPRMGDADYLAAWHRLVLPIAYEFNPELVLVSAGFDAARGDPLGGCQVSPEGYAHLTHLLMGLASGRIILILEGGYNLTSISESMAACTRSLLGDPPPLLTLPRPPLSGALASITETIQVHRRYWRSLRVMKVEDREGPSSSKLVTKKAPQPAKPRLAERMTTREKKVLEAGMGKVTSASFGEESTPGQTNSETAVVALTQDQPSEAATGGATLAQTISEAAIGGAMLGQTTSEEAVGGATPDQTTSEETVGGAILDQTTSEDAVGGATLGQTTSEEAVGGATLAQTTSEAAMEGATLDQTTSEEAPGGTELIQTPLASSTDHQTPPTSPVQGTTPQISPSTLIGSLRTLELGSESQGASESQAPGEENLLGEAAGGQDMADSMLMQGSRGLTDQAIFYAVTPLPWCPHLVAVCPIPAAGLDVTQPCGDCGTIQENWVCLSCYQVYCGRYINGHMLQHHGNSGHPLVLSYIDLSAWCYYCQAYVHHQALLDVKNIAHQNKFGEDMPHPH
Experimental: as §1, §2, §3

HDAC4 = target: T3, HDAC4 (Homo sapiens, UniProt P56524)
T3 construct: purchased BPS Biosciences
Experimental: as §1, §2, §3

HDAC7 = target: T4, HDAC7 (Homo sapiens, UniProt Q8WUI4)
T4 construct: purchased BPS Biosciences
T4 sequence (Q8WUI4 1-952): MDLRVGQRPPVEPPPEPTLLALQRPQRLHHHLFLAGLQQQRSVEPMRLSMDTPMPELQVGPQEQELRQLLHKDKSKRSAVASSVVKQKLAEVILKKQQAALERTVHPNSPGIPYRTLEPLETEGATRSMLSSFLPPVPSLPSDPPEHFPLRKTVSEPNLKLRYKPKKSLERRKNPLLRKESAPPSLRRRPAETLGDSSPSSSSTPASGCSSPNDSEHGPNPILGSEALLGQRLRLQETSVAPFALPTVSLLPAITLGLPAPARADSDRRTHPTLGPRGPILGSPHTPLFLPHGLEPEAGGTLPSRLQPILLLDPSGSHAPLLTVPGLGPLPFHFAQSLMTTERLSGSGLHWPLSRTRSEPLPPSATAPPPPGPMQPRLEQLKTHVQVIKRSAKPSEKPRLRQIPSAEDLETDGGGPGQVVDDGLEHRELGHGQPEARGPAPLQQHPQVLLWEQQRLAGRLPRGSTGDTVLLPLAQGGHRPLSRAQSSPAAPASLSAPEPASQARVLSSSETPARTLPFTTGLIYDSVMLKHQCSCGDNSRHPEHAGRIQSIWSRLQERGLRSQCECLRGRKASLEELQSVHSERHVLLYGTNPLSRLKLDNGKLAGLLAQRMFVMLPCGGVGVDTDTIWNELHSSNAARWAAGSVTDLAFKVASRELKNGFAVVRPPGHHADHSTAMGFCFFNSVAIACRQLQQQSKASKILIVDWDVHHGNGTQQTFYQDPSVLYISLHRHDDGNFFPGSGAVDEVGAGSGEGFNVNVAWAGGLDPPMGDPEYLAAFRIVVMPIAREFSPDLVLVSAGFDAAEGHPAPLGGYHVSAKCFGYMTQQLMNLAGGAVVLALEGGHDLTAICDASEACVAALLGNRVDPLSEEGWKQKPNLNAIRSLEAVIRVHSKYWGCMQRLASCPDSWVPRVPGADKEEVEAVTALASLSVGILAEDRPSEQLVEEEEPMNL
Experimental: as §1, §2, §3

T1 sequence (Q9UQL6 whole entry): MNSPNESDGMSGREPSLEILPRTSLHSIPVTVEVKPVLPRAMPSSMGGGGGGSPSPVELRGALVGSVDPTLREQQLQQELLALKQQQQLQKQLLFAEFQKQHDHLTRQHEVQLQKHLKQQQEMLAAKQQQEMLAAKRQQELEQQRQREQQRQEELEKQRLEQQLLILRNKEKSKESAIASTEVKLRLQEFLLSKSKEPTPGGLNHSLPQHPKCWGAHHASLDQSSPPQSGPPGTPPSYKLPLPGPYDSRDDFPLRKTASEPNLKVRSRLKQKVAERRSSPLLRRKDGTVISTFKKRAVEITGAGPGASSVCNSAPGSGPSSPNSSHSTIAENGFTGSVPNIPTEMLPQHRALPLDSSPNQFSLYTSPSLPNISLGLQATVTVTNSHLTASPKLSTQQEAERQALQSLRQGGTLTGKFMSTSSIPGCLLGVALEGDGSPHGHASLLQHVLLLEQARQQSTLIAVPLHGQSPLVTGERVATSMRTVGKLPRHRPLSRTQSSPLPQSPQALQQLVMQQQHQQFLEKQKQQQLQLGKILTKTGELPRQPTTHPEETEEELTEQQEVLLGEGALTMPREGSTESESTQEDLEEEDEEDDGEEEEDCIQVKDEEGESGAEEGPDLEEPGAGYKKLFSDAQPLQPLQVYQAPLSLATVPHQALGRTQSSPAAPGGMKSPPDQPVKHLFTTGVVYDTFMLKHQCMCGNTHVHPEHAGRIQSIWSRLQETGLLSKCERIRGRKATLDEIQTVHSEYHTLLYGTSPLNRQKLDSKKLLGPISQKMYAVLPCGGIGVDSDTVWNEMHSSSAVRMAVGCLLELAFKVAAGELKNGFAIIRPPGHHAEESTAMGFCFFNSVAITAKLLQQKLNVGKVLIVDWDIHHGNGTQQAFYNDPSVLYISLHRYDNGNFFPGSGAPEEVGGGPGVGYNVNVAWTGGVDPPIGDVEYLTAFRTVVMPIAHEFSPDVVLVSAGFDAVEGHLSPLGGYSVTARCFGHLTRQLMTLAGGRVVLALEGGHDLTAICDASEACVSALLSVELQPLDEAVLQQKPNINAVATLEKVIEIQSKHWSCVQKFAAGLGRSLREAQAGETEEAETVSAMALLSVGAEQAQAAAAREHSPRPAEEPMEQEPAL
T3 sequence (P56524 whole entry): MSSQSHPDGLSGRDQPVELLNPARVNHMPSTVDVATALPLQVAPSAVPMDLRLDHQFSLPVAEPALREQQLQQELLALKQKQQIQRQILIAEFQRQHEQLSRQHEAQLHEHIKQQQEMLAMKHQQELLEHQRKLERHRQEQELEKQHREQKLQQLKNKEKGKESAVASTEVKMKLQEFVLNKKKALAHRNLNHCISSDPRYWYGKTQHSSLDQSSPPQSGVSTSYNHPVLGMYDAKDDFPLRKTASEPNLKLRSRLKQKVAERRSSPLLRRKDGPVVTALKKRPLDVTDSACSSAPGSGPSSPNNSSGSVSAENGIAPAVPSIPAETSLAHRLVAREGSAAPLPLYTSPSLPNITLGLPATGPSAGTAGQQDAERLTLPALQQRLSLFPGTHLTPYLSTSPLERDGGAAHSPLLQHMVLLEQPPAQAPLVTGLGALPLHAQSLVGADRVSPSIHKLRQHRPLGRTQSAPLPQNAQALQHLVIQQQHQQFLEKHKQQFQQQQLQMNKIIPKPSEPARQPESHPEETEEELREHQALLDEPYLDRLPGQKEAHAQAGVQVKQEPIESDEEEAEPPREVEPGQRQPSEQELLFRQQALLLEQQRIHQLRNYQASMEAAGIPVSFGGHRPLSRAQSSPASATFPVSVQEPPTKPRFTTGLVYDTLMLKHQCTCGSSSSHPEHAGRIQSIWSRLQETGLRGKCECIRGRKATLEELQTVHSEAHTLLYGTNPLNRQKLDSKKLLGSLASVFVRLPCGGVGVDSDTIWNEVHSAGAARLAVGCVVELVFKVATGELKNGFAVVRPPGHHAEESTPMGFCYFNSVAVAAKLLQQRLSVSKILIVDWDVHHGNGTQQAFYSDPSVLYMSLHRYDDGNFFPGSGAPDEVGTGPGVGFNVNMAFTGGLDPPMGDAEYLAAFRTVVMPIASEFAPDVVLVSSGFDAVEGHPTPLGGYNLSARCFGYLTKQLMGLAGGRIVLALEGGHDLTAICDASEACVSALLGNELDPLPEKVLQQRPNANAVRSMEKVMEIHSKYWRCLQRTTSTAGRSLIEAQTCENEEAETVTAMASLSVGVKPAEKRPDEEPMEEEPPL

Nc1ccc(-c2cccs2)cc1NC(=O)c1ccc2c(c1)cc(C1CC1)n2CCN1CCOCC1 [ACY-1035]
did not inhibit: inhibition of HDAC5 (HDAC5) | inhibition of HDAC6 (HDAC6) | inhibition of HDAC4 (HDAC4) | inhibition of HDAC7 (HDAC7)

— article PMC5218480 (PLoS ONE, 2017)
